Consider two compounds from ChEMBL document CHEMBL2176970, “Discovery and optimization of a series of 3-(3-phenyl-3H-imidazo[4,5-b]pyridin-2-yl)pyridin-2-amines: orally bioavailable, selective, and potent ATP-independent Akt inhibitors” (J Med Chem, 2012).

The structures appear in SMILES notation. pIC50: −log10 of the molar value. Bounds are passed on as bounds.

Data set [1] has as its target Cyclin-dependent kinase 5/CDK5 activator 1 (Homo sapiens) (UniProt Q00535+Q15078). Kind of data set: Inhibition of CDK5/p35 using fluorescent labelled substrate at 5 uM by caliper method. The format is protein-complex assay.
Data set [2] has as its target Fibroblast growth factor receptor 1 (Homo sapiens) (UniProt P11362). Kind of data set: Inhibition of FGFR1 using fluorescent labelled substrate at 5 uM by caliper method.
In data set [3] the target is Mitogen-activated protein kinase 3 (Homo sapiens) (UniProt P27361). Kind of data set: Inhibition of MAPK3 using fluorescent labelled substrate at 5 uM by caliper method.
Data set [4] deals with Ribosomal protein S6 kinase alpha-5 (Homo sapiens) (UniProt O75582). The data set can be described thus: Inhibition of MSK1 using fluorescent labelled substrate at 5 uM by caliper method.
Data set [5] concerns the target T1, RAC-alpha serine/threonine-protein kinase (Homo sapiens, UniProt P31749). Kind of data set: Inhibition of Akt1 in human A2780 cells assessed as phosphorylation of Akt at S473 after 2 hrs by Western Blot analysis. In kind it is cell-based.
The subject of another data set is A2780. The data set can be described thus: Antiproliferative activity against human A2780 cells after 72 hrs by MTS assay. In kind it is functional, cell-based. Particulars: A2780, 72 h. (In general: Formazan colour is commonly taken as a measure of viable cells.)
For data set [6], the target named is RAC-beta serine/threonine-protein kinase (Homo sapiens, UniProt P31751). Kind of data set: Binding affinity to Akt2 (1 to 481) expressed in Sf9 cells assessed as change in melting temperature at 15 uM.
For data set [7], the target named is T1, RAC-alpha serine/threonine-protein kinase. Kind of data set: Inhibition of Akt1 (1 to 480) expressed in Sf9 cells using biotin-GRPRTSSFAEG as substrate after 20 mins by Alpha-screen assay.
The target of data set [8] is RAC-gamma serine/threonine-protein kinase (Homo sapiens, UniProt Q9Y243). The data set can be described thus: Inhibition of Akt3 (1 to 479) expressed in Sf9 cells using biotin-GRPRTSSFAEG as substrate after 20 mins by Alpha-screen assay. On the technique in general: Bead proximity is the source of the signal in Alpha formats.
Another data set deals with T2, Cytochrome P450 1A2 (Homo sapiens, UniProt P05177).
T2 sequence (P05177 whole entry): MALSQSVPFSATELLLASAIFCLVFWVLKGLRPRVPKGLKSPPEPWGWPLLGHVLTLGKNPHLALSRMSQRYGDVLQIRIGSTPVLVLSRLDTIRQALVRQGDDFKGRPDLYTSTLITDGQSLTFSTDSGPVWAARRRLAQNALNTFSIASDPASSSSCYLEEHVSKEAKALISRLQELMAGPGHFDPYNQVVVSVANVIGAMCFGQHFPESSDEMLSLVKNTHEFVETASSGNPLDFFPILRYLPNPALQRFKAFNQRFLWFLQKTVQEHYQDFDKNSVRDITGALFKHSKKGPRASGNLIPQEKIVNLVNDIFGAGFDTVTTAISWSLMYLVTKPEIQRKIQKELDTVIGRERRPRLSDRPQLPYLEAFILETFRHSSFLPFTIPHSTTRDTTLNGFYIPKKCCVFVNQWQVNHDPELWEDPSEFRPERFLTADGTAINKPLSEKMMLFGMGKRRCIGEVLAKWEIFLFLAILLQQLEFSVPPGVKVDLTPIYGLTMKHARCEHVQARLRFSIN
The data set can be described thus: Inhibition of CYP1A2 in human liver microsomes using phenacetin as substrate after 10 mins. The format is ADME, Microsome. (In general: Liver microsomes are vesicles of endoplasmic reticulum, rich in cytochrome P450 enzymes.)

Another data set has as its target Cytochrome P450 2D6 (Homo sapiens, UniProt P10635). Kind of data set: Inhibition of CYP2D6 in human liver microsomes using bufuralol as substrate after 10 mins. In kind it is ADME, Microsome.
A short description of data set [9]: Half life in female CD1 mouse liver microsomes at 1 uM by LC/MS/MS. In kind it is ADME, Microsome.
The target in data set [10] is Cyclin-dependent kinase 1/cyclin B1 (Homo sapiens) (UniProt P06493+P14635). The data set can be described thus: Inhibition of CDK1/cyclinB using fluorescent labelled substrate at 5 uM by caliper method. The format is protein-complex assay.
The target in data set [11] is Serine/threonine-protein kinase pim-1 (Homo sapiens) (UniProt P11309). Kind of data set: Inhibition of PIM1 using fluorescent labelled substrate at 5 uM by caliper method.
Data set [12] concerns the target Calcium/calmodulin-dependent protein kinase type II subunit delta (Homo sapiens) (UniProt Q13557). The data set can be described thus: Inhibition of CAMK2delta using fluorescent labelled substrate at 5 uM by caliper method.
Data set [13] deals with Serine/threonine-protein kinase Sgk3 (Homo sapiens) (UniProt Q96BR1). Kind of data set: Inhibition of SGK3 using fluorescent labelled substrate at 5 uM by caliper method.
The target of data set [14] is Ribosomal protein S6 kinase alpha-2 (Homo sapiens) (UniProt Q15349). The data set can be described thus: Inhibition of RSK3 using fluorescent labelled substrate at 5 uM by caliper method.
Data set [15] concerns the target Protein kinase C eta type (Homo sapiens) (UniProt P24723). The data set can be described thus: Inhibition of PKCeta using fluorescent labelled substrate at 5 uM by caliper method.
Data set [16] deals with Protein kinase C beta type (Homo sapiens) (UniProt P05771). Kind of data set: Inhibition of PKCbeta1 using fluorescent labelled substrate at 5 uM by caliper method.
Data set [17] is described as follows: Inhibition of PKA using fluorescent labelled substrate at 5 uM by caliper method.
For data set [18], the target named is Ribosomal protein S6 kinase alpha-4 (Homo sapiens) (UniProt O75676). The data set can be described thus: Inhibition of MSK2 using fluorescent labelled substrate at 5 uM by caliper method.
In data set [19] the target is Ribosomal protein S6 kinase alpha-6 (Homo sapiens) (UniProt Q9UK32). The data set can be described thus: Inhibition of RSK4 using fluorescent labelled substrate at 5 uM by caliper method.
Data set [20] has as its target T1, RAC-alpha serine/threonine-protein kinase. Kind of data set: Inhibition of Akt1 (1 to 480) expressed in Sf9 cells by indirect affinity mass spectrometry assay.

T1 sequence (P31749 whole entry): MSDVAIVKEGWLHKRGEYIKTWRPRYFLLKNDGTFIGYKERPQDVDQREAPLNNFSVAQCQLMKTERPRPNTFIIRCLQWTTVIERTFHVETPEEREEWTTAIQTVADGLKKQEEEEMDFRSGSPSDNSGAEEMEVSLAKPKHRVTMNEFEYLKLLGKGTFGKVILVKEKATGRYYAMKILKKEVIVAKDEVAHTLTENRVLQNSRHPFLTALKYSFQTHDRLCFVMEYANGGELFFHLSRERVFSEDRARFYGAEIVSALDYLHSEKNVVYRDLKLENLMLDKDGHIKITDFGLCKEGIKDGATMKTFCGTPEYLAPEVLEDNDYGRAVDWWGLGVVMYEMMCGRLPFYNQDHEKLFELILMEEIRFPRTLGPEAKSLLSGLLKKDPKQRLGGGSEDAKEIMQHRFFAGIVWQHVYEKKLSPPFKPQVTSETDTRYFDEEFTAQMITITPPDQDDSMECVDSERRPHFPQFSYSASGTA
Chain of RAC-gamma serine/threonine-protein kinase (Q9Y243 whole entry): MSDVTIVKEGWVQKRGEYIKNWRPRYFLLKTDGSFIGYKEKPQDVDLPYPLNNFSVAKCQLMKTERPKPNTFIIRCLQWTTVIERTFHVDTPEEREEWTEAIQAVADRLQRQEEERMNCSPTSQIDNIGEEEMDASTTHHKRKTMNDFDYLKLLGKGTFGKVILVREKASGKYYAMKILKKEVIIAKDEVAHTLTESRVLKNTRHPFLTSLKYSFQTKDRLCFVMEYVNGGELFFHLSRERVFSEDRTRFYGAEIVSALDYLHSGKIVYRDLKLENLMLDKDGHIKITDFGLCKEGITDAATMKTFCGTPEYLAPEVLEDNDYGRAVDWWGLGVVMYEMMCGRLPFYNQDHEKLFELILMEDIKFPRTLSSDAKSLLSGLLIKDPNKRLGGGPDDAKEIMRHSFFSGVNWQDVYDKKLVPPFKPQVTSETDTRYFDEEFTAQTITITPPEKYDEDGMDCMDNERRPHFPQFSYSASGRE
Chain of RAC-beta serine/threonine-protein kinase (P31751 whole entry): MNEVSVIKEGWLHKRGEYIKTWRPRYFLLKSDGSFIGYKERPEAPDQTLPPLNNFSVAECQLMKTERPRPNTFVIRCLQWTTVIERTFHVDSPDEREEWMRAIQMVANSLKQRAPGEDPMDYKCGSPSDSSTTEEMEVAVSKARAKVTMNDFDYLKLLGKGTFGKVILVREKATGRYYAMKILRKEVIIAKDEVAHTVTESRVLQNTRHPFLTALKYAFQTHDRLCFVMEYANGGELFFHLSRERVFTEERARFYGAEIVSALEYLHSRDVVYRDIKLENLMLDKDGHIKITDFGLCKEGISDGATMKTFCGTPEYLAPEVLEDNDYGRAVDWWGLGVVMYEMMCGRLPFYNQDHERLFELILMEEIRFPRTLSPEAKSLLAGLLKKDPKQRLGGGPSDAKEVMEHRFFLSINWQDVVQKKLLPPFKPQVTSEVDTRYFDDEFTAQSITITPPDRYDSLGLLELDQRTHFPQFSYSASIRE
Chain of Ribosomal protein S6 kinase alpha-4 (Homo sapiens) (O75676 whole entry, looked up): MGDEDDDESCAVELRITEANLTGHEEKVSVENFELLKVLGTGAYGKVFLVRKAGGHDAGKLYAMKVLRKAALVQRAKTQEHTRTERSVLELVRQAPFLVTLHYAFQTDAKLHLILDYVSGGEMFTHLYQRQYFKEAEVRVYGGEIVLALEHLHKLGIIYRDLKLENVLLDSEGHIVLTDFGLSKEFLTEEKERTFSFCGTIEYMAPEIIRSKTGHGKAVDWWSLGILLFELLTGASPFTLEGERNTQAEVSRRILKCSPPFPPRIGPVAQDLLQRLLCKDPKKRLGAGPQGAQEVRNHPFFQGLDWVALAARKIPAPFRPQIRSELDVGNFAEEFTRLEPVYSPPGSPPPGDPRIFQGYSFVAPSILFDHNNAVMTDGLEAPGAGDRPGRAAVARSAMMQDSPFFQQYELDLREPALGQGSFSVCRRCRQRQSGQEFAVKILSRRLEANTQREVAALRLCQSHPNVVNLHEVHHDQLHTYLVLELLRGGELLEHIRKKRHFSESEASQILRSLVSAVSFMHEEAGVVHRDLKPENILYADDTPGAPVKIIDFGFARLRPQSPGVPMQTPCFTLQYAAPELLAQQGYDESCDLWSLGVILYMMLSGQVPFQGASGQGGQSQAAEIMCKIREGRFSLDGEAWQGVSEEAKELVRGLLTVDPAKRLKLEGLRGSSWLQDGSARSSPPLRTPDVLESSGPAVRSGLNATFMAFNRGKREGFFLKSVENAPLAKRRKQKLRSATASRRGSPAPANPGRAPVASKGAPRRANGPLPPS
Chain of Ribosomal protein S6 kinase alpha-2 (Homo sapiens) (Q15349 whole entry): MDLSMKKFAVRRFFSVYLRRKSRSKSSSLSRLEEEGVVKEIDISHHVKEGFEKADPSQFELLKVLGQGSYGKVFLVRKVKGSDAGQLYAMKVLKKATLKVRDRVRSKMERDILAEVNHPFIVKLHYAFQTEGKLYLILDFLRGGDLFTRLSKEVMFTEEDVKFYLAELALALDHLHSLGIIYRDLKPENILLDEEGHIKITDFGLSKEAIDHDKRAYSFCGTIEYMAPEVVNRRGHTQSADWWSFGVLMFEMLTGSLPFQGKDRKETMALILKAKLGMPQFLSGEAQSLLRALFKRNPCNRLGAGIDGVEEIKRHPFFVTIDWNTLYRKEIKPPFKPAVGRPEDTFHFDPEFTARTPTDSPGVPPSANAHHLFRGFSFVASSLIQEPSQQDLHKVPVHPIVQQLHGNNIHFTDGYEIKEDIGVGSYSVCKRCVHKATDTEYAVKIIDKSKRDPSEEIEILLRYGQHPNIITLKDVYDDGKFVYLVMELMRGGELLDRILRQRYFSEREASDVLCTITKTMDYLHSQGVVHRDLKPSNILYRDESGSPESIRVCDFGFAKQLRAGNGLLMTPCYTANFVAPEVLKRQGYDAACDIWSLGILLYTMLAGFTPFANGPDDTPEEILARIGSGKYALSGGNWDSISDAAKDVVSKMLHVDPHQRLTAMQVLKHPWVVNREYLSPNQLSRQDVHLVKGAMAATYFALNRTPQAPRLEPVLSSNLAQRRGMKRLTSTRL
Chain of Ribosomal protein S6 kinase alpha-5 (Homo sapiens) (O75582 whole entry, looked up): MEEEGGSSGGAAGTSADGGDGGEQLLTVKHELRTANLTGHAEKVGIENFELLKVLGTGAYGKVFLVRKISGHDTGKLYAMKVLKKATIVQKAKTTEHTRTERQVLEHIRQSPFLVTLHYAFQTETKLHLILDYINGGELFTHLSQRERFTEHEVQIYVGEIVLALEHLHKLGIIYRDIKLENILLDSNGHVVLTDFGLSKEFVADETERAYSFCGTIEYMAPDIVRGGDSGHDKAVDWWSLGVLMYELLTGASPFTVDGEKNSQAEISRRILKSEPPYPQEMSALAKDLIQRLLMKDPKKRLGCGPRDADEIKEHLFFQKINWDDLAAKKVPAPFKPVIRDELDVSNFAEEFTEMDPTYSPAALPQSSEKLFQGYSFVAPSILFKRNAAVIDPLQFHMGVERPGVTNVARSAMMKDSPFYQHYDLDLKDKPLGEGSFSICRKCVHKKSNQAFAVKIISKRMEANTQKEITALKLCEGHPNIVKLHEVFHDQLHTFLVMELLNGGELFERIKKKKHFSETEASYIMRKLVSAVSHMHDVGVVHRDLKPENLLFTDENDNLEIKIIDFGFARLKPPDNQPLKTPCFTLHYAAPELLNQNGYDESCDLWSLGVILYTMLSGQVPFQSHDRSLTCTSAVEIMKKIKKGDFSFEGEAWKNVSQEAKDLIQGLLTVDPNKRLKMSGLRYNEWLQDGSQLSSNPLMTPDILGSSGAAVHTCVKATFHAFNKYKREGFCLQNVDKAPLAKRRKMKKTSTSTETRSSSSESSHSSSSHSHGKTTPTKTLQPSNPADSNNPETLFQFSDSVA
Chain of Cyclin-dependent kinase 5/CDK5 activator 1 (Homo sapiens) (Q00535 whole entry): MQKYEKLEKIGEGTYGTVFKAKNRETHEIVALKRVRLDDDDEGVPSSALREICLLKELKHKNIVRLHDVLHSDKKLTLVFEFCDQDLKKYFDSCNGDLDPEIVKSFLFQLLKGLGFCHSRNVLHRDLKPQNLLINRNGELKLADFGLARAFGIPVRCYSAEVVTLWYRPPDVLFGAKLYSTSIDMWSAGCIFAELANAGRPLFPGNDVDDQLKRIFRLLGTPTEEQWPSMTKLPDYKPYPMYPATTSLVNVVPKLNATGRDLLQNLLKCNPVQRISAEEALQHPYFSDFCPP
Chain of Cyclin-dependent kinase 5/CDK5 activator 1 (Homo sapiens) (Q15078 99-307 partner limits assumed): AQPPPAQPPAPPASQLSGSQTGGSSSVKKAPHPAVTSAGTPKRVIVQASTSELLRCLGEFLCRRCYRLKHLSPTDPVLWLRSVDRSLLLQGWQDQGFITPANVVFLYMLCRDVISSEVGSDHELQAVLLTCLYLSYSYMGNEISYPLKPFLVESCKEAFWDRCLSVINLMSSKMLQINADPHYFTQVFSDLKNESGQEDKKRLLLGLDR
Chain of Protein kinase C beta type (Homo sapiens) (P05771 2-671 limits assumed): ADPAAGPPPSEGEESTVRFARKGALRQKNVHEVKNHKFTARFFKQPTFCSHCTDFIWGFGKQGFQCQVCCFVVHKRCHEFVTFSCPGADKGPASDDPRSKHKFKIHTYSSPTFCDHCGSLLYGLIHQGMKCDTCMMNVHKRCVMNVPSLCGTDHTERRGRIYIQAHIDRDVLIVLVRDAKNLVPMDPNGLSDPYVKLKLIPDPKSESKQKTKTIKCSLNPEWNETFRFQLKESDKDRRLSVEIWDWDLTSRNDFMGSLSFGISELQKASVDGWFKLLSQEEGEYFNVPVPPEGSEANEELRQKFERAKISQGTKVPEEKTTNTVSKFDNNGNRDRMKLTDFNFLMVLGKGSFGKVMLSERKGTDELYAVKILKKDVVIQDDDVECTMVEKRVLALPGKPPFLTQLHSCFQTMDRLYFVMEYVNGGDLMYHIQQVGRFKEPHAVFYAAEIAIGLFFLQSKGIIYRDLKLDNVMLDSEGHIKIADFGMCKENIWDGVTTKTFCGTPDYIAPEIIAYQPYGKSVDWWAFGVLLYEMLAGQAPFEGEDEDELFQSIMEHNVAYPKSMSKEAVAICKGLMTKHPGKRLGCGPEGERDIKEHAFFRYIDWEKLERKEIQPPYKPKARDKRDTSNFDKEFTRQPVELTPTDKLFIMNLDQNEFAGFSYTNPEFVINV

Consider `Nc1ncccc1-c1nc2cccnc2n1-c1ccc(CNC(=O)c2ccccc2)cc1`, for which the inhibition in data set [1], in data set [2], in data set [3], in data set [4], in data set [10] and in data set [11] was greater than 25% in each case. In addition, the inhibition in [12], in data set [13], in data set [14], in [15], in data set [16] and in [17] was greater than 25% each time. In addition, the inhibition in data set [18] and in [19] was greater than 25% in each case. The pIC50 in data set [5] was 6.39; with A2780 it was less than 4.00; in data set [7] it was 7.64; in [8], 4.62; on Cytochrome P450 1A2, less than 5.00; at Cytochrome P450 2D6, less than 5.00. Moreover, in [6], the ΔTm was found to be 1.3 °C. In data set [9], this compound came in with a half-life at 1 µM greater than 1 h.
For `Nc1ncccc1-c1nc2cccnc2n1-c1ccc(CC(=O)Nc2ccccc2)cc1`, the inhibition in data set [1], in data set [2], in [3], in data set [4], in [10] and in data set [11] was greater than 25% throughout. Also, the inhibition in data set [12], in data set [13], in [14], in [15], in data set [16] and in [17] was greater than 25% throughout. Further, the inhibition in data set [18] and in data set [19] was greater than 25% in each case. Further, the pIC50 in [20] was 4.85; in [5], 6.68; in the data set on A2780 it was 4.24; in [8], 4.66; on Cytochrome P450 1A2, less than 5.00; against Cytochrome P450 2D6 it was less than 5.00. Also, the ΔTm in data set [6] came to 1.2 °C. The same compound came in with a half-life at 1 µM in [9] greater than 1 h.

Broadly, the inhibition is the change of the read-out against control, counted positive when it falls. By pIC50 is commonly meant −log10 of the IC50, conventionally taken in molar units. Usually ΔTm stands for the change in melting temperature against a reference sample. As usually defined, the half-life is the time in which the quantity being followed falls by half. Higher therefore signals slow decline.
